Drawing on ChEMBL document CHEMBL1159241, “Dihydrolicoisoflavone, a new isoflavanone from Swartzia polyphylla” (J Nat Prod, 1995), this text covers IC50 for one compound.

The assay is described as follows: Inhibition of protein kinase C.

As a reminder, the IC50 is the concentration that inhibits the measured activity by half. A lower IC50 goes with higher potency. As for `COc1ccc(-c2coc3cc(O)cc(O)c3c2=O)cc1` [BIOCHANIN], the IC50 was under 50 µg/mL.
